Data: patent publication US20210317072A1, “H2O CRYSTAL FORMS OF A TCA CYCLE INTERMEDIATE CONJUGATE” (IMBRIA PHARMACEUTICALS, INC., priority 2020, published 2021)

Legend:
Type in all cases: physicochemical
[1] = Temperature cycling polymorph screening; conditions: summary of 6 experiments
Protocol: (§1) For with Type A, polymorph screening experiments were set up under 32 conditions using methods of solid vapor diffusion, slurry conversion at room temperature, slurry conversion at 50° C., and temperature cycling. Polymorph screening experiments were performed using different crystallization or solid transition methods.

[2] = Slurry conversion at 50° C., solids isolated for XRPD analysis
Protocol: as §1
(§2) Slurry conversion experiments were conducted at room temperate and at 50° C. in different solvent systems. Solids were isolated for XRPD analysis.

[3] = Solid vapor diffusion, precipitates isolated for XRPD analysis
Protocol: as §1
Solid vapor diffusion experiments were conducted in different solvent conditions. The precipitates were isolated for XRPD analysis.

[4] = Polymorph screening under 32 conditions / form stability
Excerpt: A comprehensive polymorph screening for a TCA intermediate conjugated to an amino acid which has the structure of Formula (X) was undertaken. The TCA conjugate starting material was characterized by X-ray powder diffraction (XRPD). […] One unique XRPD patterns was observed, which was Type A. Type A is a stable Type At the ambient temperature and humidity.
as §1

[5] = Slurry conversion at room temperature, solids isolated for XRPD analysis
Protocol: as §1, §2

SMILES: N[C@@H](COC(=O)CCC(=O)O)C(=O)O [Type A]
- Crystal Type [1]: Type A, Type A + peak
- Solid Form ([2]; slurry at 50° C., 1,4-dioxane (exp. 818135-05-A6)): Type A
- Solid Form ([2]; slurry at 50° C., 2-Me THF (exp. 818135-05-A3)): Type A
- Solid Form ([2]; slurry at 50° C., CHCL3 (exp. 818135-05-A7)): Type A
- Solid Form ([2]; slurry at 50° C., EtOAc (exp. 818135-05-A2)): Type A
- Solid Form ([2]; slurry at 50° C., EtOH (exp. 818135-05-A1)): Type A
- Solid Form ([2]; slurry at 50° C., MEK (exp. 818135-05-A5)): Type A
- Solid Form ([2]; slurry at 50° C., Toluene (exp. 818135-05-A9)): Type A
- Solid Form ([2]; slurry at 50° C., n-heptane (exp. 818135-05-A4)): Type A + peak
- Crystal Type ([2]; slurry at 50° C., summary of 9 experiments): Type A, Type A + peak
- Solid Form ([3]; anti-solvent Acetone (exp. 818135-06-A5)): Type A
- Solid Form ([3]; anti-solvent DCM (exp. 818135-06-A1)): Type A
- Solid Form ([3]; anti-solvent DMSO (exp. 818135-06-A4)): Type A
- Solid Form ([3]; anti-solvent EtOH (exp. 818135-06-A2)): Type A
- Solid Form ([3]; anti-solvent H2O (exp. 818135-06-A6)): Type A
- Solid Form ([3]; anti-solvent THF (exp. 818135-06-A3)): Type A
- Crystal Type ([3]; summary of 6 experiments): Type A
- Stability of the crystal form ([4]; ambient temperature and humidity): stable
- Crystal Type ([4]; total, all 32 screening experiments): Type A, Type A + peak
- Solid Form ([5]; Acetone (exp. 818135-04-A2)): Type A
- Solid Form ([5]; CAN (exp. 818135-04-A5)): Type A + peak
- Solid Form ([5]; DCM (exp. 818135-04-A6)): Type A + peak
- Solid Form ([5]; H2O (exp. 818135-04-A7)): Type A
- Solid Form ([5]; IPAc (exp. 818135-04-A3)): Type A + peak
- Solid Form ([5]; MTBE (exp. 818135-04-A4)): Type A + peak
- Solid Form ([5]; MeOH (exp. 818135-04-A1)): Type A
- Solid Form ([5]; THF/H2O (0.87:0.13, aW~0.8) (exp. 818135-04-A11)): Type A
- Solid Form ([5]; THF/H2O (0.924:0.076, aW~0.6) (exp. 818135-04-A10)): Type A
- Solid Form ([5]; THF/H2O (0.956:0.044, aW~0.4) (exp. 818135-04-A9)): Type A + peak
- Solid Form ([5]; THF/H2O (0.98:0.02, aW~0.2) (exp. 818135-04-A8)): Type A
- Crystal Type ([5]; summary of 11 experiments): Type A, Type A + peak
